Like-named read-outs stand apart in the source and are kept apart here.
Experiments:
[1] = biological target: T1, human opioid receptor (δ) (Homo sapiens, UniProt P41143); experiment: Opioid receptor binding, [3H]naltrindole (δ)
T1 construct: expressed in transfected cells

[2] = biological target: T2, human opioid receptor (μ) (Homo sapiens, UniProt P35372); experiment: Opioid receptor binding, [3H]DAMGO (μ)
T2 construct: expressed in transfected cells

[3] = biological target: T3, human opioid receptor (κ) (Homo sapiens, UniProt P41145); experiment: Opioid receptor binding, [3H]U69,593 (κ)
T3 construct: expressed in transfected cells

mice = details: cited from earlier work; for duration of action: 1 mg/kg ip in mice
guinea pig μ receptors = details: cyclazocine series; μ printed as ∥; cited from earlier work
κ opioid receptors = details: cyclazocine series; cited from earlier work
human μ opioid receptor = biological target: T4, human μ opioid receptor (Homo sapiens, UniProt P35372); experiment: [35S]GTPγS binding assay, μ; format: biochemical; details: agonist/antagonist character; antagonism vs 200 nM DAMGO
T4 construct: expressed in transfected cells

human κ opioid receptor = biological target: T5, human κ opioid receptor (Homo sapiens, UniProt P41145); experiment: [35S]GTPγS binding assay, κ; format: biochemical; details: agonist/antagonist character; antagonism vs 100 nM U50,488
T5 construct: expressed in transfected cells

[4] = read-out: Ki [3H]Naltrindole (δ), CHO cell membranes, 0.2 nM [3H]naltrindole, mean±SEM
[5] = read-out: Ki [3H]DAMGO (μ), CHO cell membranes, […] [3H]DAMGO, mean±SEM
[6] = CHO cell membranes, 1 nM [3H]U69,593, mean±SEM, read-out: Ki [3H]U69,593 (K)

T2 sequence (P35372 whole entry): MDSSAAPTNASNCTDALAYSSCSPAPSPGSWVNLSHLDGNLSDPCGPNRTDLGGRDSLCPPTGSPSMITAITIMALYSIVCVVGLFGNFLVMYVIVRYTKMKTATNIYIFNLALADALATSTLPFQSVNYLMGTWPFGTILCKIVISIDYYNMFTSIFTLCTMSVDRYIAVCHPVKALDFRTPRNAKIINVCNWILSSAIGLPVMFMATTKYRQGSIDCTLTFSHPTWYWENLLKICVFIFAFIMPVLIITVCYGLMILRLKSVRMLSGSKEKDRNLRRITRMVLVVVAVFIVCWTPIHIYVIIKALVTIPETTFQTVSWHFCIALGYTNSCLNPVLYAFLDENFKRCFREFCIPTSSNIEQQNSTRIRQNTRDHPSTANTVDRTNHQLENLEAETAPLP
T4 sequence (P35372 whole entry): as above
T5 sequence (P41145 whole entry): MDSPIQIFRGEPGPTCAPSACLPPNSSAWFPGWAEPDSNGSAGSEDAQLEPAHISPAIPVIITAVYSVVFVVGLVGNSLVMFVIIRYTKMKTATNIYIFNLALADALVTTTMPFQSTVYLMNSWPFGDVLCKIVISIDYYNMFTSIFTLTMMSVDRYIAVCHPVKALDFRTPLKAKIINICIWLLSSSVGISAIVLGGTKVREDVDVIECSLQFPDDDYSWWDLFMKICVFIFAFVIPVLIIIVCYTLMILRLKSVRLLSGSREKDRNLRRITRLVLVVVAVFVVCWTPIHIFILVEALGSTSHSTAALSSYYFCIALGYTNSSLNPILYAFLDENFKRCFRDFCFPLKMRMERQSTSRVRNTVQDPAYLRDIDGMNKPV
T3 sequence (P41145 whole entry): as above
T1 sequence (P41143 whole entry): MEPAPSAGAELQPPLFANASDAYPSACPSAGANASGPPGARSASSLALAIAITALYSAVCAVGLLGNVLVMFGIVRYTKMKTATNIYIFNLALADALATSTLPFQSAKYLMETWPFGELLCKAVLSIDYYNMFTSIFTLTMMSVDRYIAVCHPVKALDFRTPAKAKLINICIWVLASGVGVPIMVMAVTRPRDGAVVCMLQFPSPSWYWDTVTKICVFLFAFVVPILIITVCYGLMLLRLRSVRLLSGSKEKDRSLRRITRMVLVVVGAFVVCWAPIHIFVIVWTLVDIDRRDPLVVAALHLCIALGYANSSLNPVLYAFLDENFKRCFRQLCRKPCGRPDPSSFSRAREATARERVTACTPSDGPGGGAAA

| Structure (SMILES) | Ki [1] | Ki [2] | Ki [3, 6] | other results |
| --- | --- | --- | --- | --- |
| CC1C2Cc3ccc(C(N)=O)c(N)c3C1(C)CCN2CC1CC1 (mixture of isomers) [Example 6, Cis-(±)-3-(cyclopropylmethyl)-1,2,3,4,5,6-hexahydro-6,11-dimethyl-7-amino-2,6-methano-3-benzazocine-8-carboxamide] | 35 ± 0.036 nM | 0.55 ± 0.029 nM |  | Ki [3]: 0.7 ± 0.036 nM |
| C[C@H]1C2Cc3cc(N)c(C(N)=O)cc3[C@@]1(C)CCN2CC1CC1 (racemic) [Example 7, Cis-(±)-3-(cyclopropylmethyl)-1,2,3,4,5,6-hexahydro-6,11-dimethyl-9-amino-2,6-methano-3-benzazocine-8-carboxamide] | 2000 ± 12 nM | 88 ± 5.2 nM |  | Ki [3]: 32 ± 1.7 nM |
| C[C@H]1C2Cc3ccc(C(N)=O)cc3[C@@]1(C)CCN2CC1CC1 [Example 8-CAC, 8-carboxamidocyclazocine] |  |  |  | duration of action (mice): 15 h; antinociception activity (mice; studies in vivo): high antinociception activity; affinity for μ opioid receptors (guinea pig μ receptors): high affinity; affinity for κ opioid receptors (κ opioid receptors): high affinity |
| C[C@H]1C2Cc3ccc4c(=O)[nH]cnc4c3[C@@]1(C)CCN2CC1CC1 [Example 8] |  |  | 160 ± 7.1 nM | Ki [1, 4]: 2000 ± 49 nM; Ki [2, 5]: 270 ± 33 nM |
| C[C@H]1C2Cc3cc4nc[nH]c(=O)c4cc3[C@@]1(C)CCN2CC1CC1 [Example 9] |  |  | 12 ± 0.65 nM | Ki [1, 4]: 780 ± 32 nM; Ki [2, 5]: 170 ± 6.7 nM |
| CC1C2Cc3ccc4c(N)ncnc4c3C1(C)CCN2CC1CC1 (centres unmarked) [Example 10] | 120 ± 8.5 nM | 0.55 ± 0.018 nM | 1 ± 0.071 nM | GTPγS data, MOR (human μ opioid receptor): MOR and KOR antagonist; GTPγS data, KOR (human κ opioid receptor): MOR and KOR antagonist |
| CC1C2Cc3cc4ncnc(N)c4cc3C1(C)CCN2CC1CC1 (centres unmarked) [Example 11] |  | 890 ± 39 nM | 560 ± 23 nM | inhibition at 10 µM ([1]; read-out: inh. of [3H]Naltrindole (δ) binding, at 10 μM): 47% |
| CC1C2Cc3ccc4c(NCc5ccccc5)ncnc4c3C1(C)CCN2CC1CC1 (centres unmarked) [Example 12] | 1500 ± 68 nM | 44 ± 0.76 nM | 240 ± 1.8 nM |  |
| CC1C2Cc3cc4ncnc(NCc5ccccc5)c4cc3C1(C)CCN2CC1CC1 (centres unmarked) [Example 13] | 1000 ± 37 nM | 88 ± 7.2 nM | 48 ± 2.3 nM |  |
| CC1C2Cc3ccc4c(NCCc5ccc(-c6ccccc6)cc5)ncnc4c3C1(C)CCN2CC1CC1 (centres unmarked) [Example 14] | 52 ± 2.6 nM | 6.9 ± 0.33 nM | 8.6 ± 1.5 nM |  |
| CC1C2Cc3cc4ncnc(NCCc5ccc(-c6ccccc6)cc5)c4cc3C1(C)CCN2CC1CC1 (centres unmarked) [Example 15] | 410 ± 61 nM | 28 ± 1.9 nM | 140 ± 4.4 nM |  |
| C[C@H]1C2Cc3ccc4[nH]nnc4c3[C@@]1(C)CCN2CC1CC1 [Example 29] |  |  | 0.23 ± 0.009 nM | Ki [1, 4]: 46 ± 2.6 nM; GTPγS data, MOR (human μ opioid receptor): antagonist; Ki [2, 5]: 1.4 ± 0.043 nM; GTPγS data, KOR (human κ opioid receptor): agonist |
| C[C@H]1C2Cc3cc4nn[nH]c4cc3[C@@]1(C)CCN2CC1CC1 [Example 30] |  |  | 0.81 ± 0.19 nM | Ki [1, 4]: 51 ± 7.8 nM; GTPγS data, MOR (human μ opioid receptor): antagonist; Ki [2, 5]: 10 ± 1 nM; GTPγS data, KOR (human κ opioid receptor): agonist |
| CC1C2Cc3cc4nc[nH]c4cc3C1(C)CCN2CC1CC1 (centres unmarked) [Example 34] | 5.1 ± 0.65 nM | 0.31 ± 0.05 nM | 0.063 ± 0.0016 nM | GTPγS data, MOR (human μ opioid receptor): MOR weak agonist/antagonist, KOR |
| Cc1nc2cc3c(cc2[nH]1)CC1C(C)C3(C)CCN1CC1CC1 (centres unmarked) [Example 35] | 18 ± 0.9 nM | 0.77 ± 0.051 nM | 0.05 ± 0.002 nM | GTPγS data, MOR (human μ opioid receptor): MOR agonist/weak antagonist; KOR; GTPγS data, KOR (human κ opioid receptor): agonist |
| CC1C2Cc3cc4[nH]c(=O)[nH]c4cc3C1(C)CCN2CC1CC1 (centres unmarked) [Example 36] | 730 ± 8.3 nM | 60 ± 7.9 nM | 12 ± 1.3 nM |  |
| C[C@H]1C2Cc3ccc4c(N)onc4c3[C@@]1(C)CCN2CC1CC1 [Example 43] | 99 ± 10 nM | 0.75 ± 0.038 nM | 0.65 ± 0.005 nM |  |
| C[C@H]1[C@H]2Cc3ccc(O)cc3[C@]1(C)CCN2CC1CC1 [cyclazocine] |  |  |  | duration of action (mice): 2 h |

Source: patent US20100130512A1, “FUSED-RING H[…]” (RENSSELAER POLYTECHNIC INSTITUTE, priority 2007, published 2010)
